From PubChem BioAssay (NCI)
Several values for one entry are separate records, joined by “and”; a condition that tells them apart may be missing. Identical values can stand only once.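 The compound was tested at five concentrations on cells cultured in 96-well plates, with a 48-hour exposure period. Here, GI50 denotes the concentration required for 50% inhibition of growth. Definition used: TGI = concentration required for complete inhibition of growth.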

Experiments:
Assay in all cases: NCI tumour cell line growth inhibition, 48 h
[1] = test system: LOX IMVI melanoma
[2] = test system: SNB-19 CNS
[3] = test system: NCI-H226 lung
[4] = test system: MCF7 breast
[5] = test system: SF-539 CNS
[6] = test system: UACC-62 melanoma
[7] = test system: MDA-MB-231 breast
[8] = test system: SW-620 colon
[9] = test system: NCI-H23 lung
[10] = test system: BT-549 breast
[11] = test system: UACC-257 melanoma
[12] = test system: CCRF-CEM leukemia
[13] = test system: SF-295 CNS
[14] = test system: RPMI-8226 leukemia
[15] = test system: PC-3 prostate
[16] = test system: IGROV1 ovarian
[17] = test system: SK-MEL-28 melanoma
[18] = test system: TK-10 renal
[19] = test system: SK-OV-3 ovarian
[20] = test system: MDA-N
[21] = test system: SK-MEL-2 melanoma
[22] = test system: SR leukemia
[23] = test system: CAKI-1 renal
[24] = test system: MOLT-4 leukemia
[25] = test system: HL-60(TB) leukemia
[26] = test system: OVCAR-8 ovarian
[27] = test system: NCI-H522 lung
[28] = test system: 786-0 renal
[29] = test system: SF-268 CNS
[30] = test system: MDA-MB-435
[31] = test system: K-562 leukemia
[32] = test system: EKVX NSCLC
[33] = test system: M14 melanoma
[34] = test system: HT29 colon
[35] = test system: MALME-3M melanoma
[36] = test system: OVCAR-3 ovarian
[37] = test system: NCI-H460 lung
[38] = test system: HOP-92 NSCLC
[39] = test system: HOP-62 NSCLC
[40] = test system: COLO 205 colon
[41] = test system: SN12C renal
[42] = test system: NCI/ADR-RES ovarian
[43] = test system: SNB-75 CNS
[44] = test system: OVCAR-4 ovarian
[45] = test system: HS 578T breast
[46] = test system: KM12 colon
[47] = test system: A549 NSCLC
[48] = test system: HCT-15 colon
[49] = test system: UO-31 renal
[50] = test system: DU-145 prostate
[51] = test system: ACHN renal
[52] = test system: HCT-116 colon
[53] = test system: U251 CNS
[54] = test system: OVCAR-5 ovarian
[55] = test system: HCC-2998 colon
[56] = test system: RXF 393 renal
[57] = test system: A498 renal
[58] = test system: SK-MEL-5 melanoma

Cc1cccc(/C=C2\CCCc3ccccc3C2=O)c1
TGI [1]: 37 µM
TGI [2]: 90.3 µM
TGI [3]: 40.8 µM
TGI [4]: 56.2 µM
TGI [5]: 34.4 µM
TGI [6]: 27.5 µM
TGI [7]: 48 µM
TGI [8]: 30.7 µM
TGI [9]: 79.8 µM
TGI [10]: 75.6 µM
TGI [11]: 61.8 µM
TGI [12]: 35.1 µM
TGI [13]: 41.8 µM
TGI [14]: 45.8 µM
TGI [15]: > 100 µM
TGI [16]: 59.6 µM
TGI [17]: 59 µM
TGI [18]: > 100 µM
TGI [19]: > 100 µM
TGI [20]: 55 µM
TGI [21]: 30.8 µM
TGI [22]: 40.3 µM
TGI [23]: > 100 µM
TGI [24]: 68.6 µM
TGI [25]: 29 µM
TGI [26]: 78.3 µM
TGI [27]: 33.1 µM
TGI [28]: > 100 µM
TGI [29]: 29.6 µM
TGI [30]: 37 µM
TGI [31]: 48.8 µM
TGI [32]: 57.1 µM
TGI [33]: 34.6 µM
TGI [34]: 46.6 µM
TGI [35]: 35.3 µM
TGI [36]: 78.7 µM
TGI [37]: 36.5 µM
TGI [38]: 58.5 µM
TGI [39]: 99.4 µM
TGI [40]: 35.8 µM
TGI [41]: 38 µM
TGI [42]: 69.2 µM
TGI [43]: > 100 µM
TGI [44]: 47.7 µM
TGI [45]: 32.6 µM
TGI [46]: 26.1 µM
TGI [47]: > 100 µM
TGI [48]: 44.9 µM
TGI [49]: > 100 µM
TGI [50]: > 100 µM
TGI [51]: 86.6 µM
TGI [52]: 31.2 µM
TGI [53]: 48.5 µM
TGI [54]: 31.6 µM

C/C(=N\N=C(\[Se])N1CCN(c2ccccn2)CC1)c1ccccn1
GI50 [1]: 0.00443 µM
TGI [1]: 17.6 µM
TGI [55]: 23.3 µM
GI50 [2]: 0.13 µM
TGI [2]: 18.6 µM
TGI [3]: 14.3 µM
GI50 [4]: 0.00278 µM
TGI [4]: 14.3 µM
GI50 [5]: 0.407 µM
TGI [5]: 12.2 µM
TGI [7]: 17.5 µM
TGI [8]: 12.4 µM
GI50 [9]: 0.023 µM
TGI [9]: 21.8 µM
TGI [10]: 25 µM
GI50 [11]: 0.0047 µM
TGI [11]: 12.8 µM
GI50 [13]: 0.0204 µM
TGI [13]: 16.7 µM
GI50 [14]: 0.00477 µM
TGI [14]: 0.486 µM
GI50 [15]: 0.334 µM
TGI [15]: 14.2 µM
TGI [17]: 22.7 µM
TGI [18]: 20.6 µM
TGI [19]: 9.82 µM
GI50 [20]: 0.424 µM
TGI [20]: 21 µM
TGI [21]: 2.36 µM
TGI [56]: 1.83 µM
GI50 [22]: 4.17 µM
TGI [22]: 54.4 µM
GI50 [23]: 0.0408 µM
TGI [23]: 21.3 µM
GI50 [24]: 0.00298 µM
GI50 [25]: 0.00236 µM
GI50 [26]: 0.000541 µM
TGI [26]: 20.6 µM
GI50 [27]: 0.0429 µM
TGI [27]: 0.761 µM and 3.2 µM
GI50 [28]: 0.198 µM
TGI [28]: 19.8 µM
TGI [29]: 19.5 µM
GI50 [30]: 0.0967 µM
TGI [30]: 20.3 µM
GI50 [31]: 0.00114 µM
GI50 [32]: 0.0937 µM and 0.559 µM
TGI [32]: 9.7 µM
GI50 [33]: 0.0254 µM
TGI [33]: 16.7 µM
GI50 [34]: 0.00203 µM
TGI [34]: 14.2 µM
GI50 [35]: 0.159 µM
TGI [35]: 3.78 µM
TGI [37]: 16 µM
GI50 [38]: 0.0044 µM
TGI [38]: 13.2 µM
GI50 [40]: 0.00449 µM
TGI [40]: 0.0358 µM
GI50 [41]: 0.375 µM
TGI [41]: 21.3 µM
TGI [42]: 18.6 µM
TGI [43]: 17.5 µM
GI50 [44]: 0.00554 µM
TGI [44]: 3.31 µM
TGI [57]: 18.1 µM
TGI [45]: 68.2 µM
GI50 [46]: 0.239 µM
TGI [46]: 18.5 µM
GI50 [47]: 0.0476 µM
TGI [47]: 21.7 µM
GI50 [48]: 0.0118 µM
TGI [48]: 17.3 µM
GI50 [49]: 0.138 µM
TGI [49]: > 40 µM
GI50 [50]: 0.586 µM
TGI [50]: 20.1 µM
GI50 [51]: 0.00847 µM
TGI [51]: 16.9 µM
GI50 [52]: 0.00589 µM
TGI [52]: 6.27 µM
TGI [53]: 16.7 µM
GI50 [54]: 0.00643 µM
TGI [54]: 21.8 µM
GI50 [58]: 0.0401 µM
TGI [58]: 3.95 µM

O=c1[nH]c(=O)n(C2OC(CO)C(O)C2O)c2ccsc12 (centres undefined)
TGI [1]: > 100 µM
TGI [55]: > 100 µM
TGI [3]: > 100 µM
TGI [4]: > 100 µM
TGI [5]: > 100 µM
TGI [7]: > 100 µM
TGI [8]: > 100 µM
TGI [9]: > 100 µM
TGI [10]: > 100 µM
TGI [11]: > 100 µM
TGI [12]: > 100 µM
TGI [13]: > 100 µM
TGI [14]: > 100 µM
TGI [15]: > 100 µM
TGI [16]: > 100 µM
TGI [17]: > 100 µM
TGI [18]: > 100 µM
TGI [20]: > 100 µM
TGI [21]: > 100 µM
TGI [56]: > 100 µM
TGI [22]: > 100 µM
TGI [23]: > 100 µM
TGI [24]: > 100 µM
TGI [25]: > 100 µM
TGI [27]: > 100 µM
TGI [28]: > 100 µM
TGI [29]: > 100 µM
TGI [30]: > 100 µM
TGI [31]: > 100 µM
TGI [32]: > 100 µM
TGI [33]: > 100 µM
TGI [34]: > 100 µM
TGI [35]: > 100 µM
TGI [36]: > 100 µM
TGI [37]: > 100 µM
TGI [38]: > 100 µM
TGI [39]: > 100 µM
TGI [40]: > 100 µM
TGI [41]: > 100 µM
TGI [42]: > 100 µM
TGI [43]: > 100 µM
TGI [44]: > 100 µM
TGI [57]: > 100 µM
TGI [45]: > 100 µM
TGI [46]: > 100 µM
TGI [47]: > 100 µM
TGI [48]: > 100 µM
TGI [49]: > 100 µM
TGI [50]: > 100 µM
TGI [51]: > 100 µM
TGI [52]: > 100 µM
TGI [53]: > 100 µM
TGI [54]: > 100 µM
TGI [58]: > 100 µM
